Tests used:
[1] = Negative-stain TEM fiber width; assay type: physicochemical
Procedure: To prepare the negatively stained TEM specimen, 7 μL of PA sample solution (1 wt % PA prepared in 150 mM NaCl and 3 mM diluted 10 times in MilliQ water) was applied on the shiny side of a glow discharged grid (300 mesh copper with carbon film, Electron Microscopy Sciences), followed by rinsing three times with MilliQ water to remove the excess of salt. The grid was then stained with filtered 2 wt % uranyl acetate aqueous solution and dried in air. TEM imaging was carried out on a JEOL 1230 microscope with a LaB6 filament at 100 kV accelerating voltage, equipped with a Gatan 831 CCD camera. A cold finger was introduced for sample stabilization during imaging.

[2] = system: murine model of severe spinal cord injury (SCI); test: Angiogenesis at the site of SCI (DiI labelling, BrdU/CD31); assay type: in vivo, mouse
Procedure: All experiments were conducted at the Simpson Querrey Institute at Northwestern University. 182 CD1 mice (Charles River) were subjects of this study (N=38 Sham, N=38 IKVAV PA2 alone, N=38 IKVAV PA2+FGF2 PA1, N=38 IKVAV PA2+FGF2 PA2, N=12 IKVAV PA1, N=12 Backbone PA, N=6 IKVAV PA4). The age of animals used in the study was in the range of 10-16 weeks. 8 independent in vivo experiments were carried out (injury+PA injection) and each of the 8 experiments had animals of the exact same age which were injected with at least the 4 main treatment groups: Sham, IKVAV PA2 alone, IKVAV PA2+FGF2 PA1, and IKVAV PA2+FGF2 PA2. Animals were anesthetized using 2.5% isoflurane gas with oxygen. […]
PAs (dissolved in sterile NaCl 0.9% solution at 1 wt %) were injected 24 h after SCI using a glass capillary micropipette (Sutter Instruments, Novato, CA) (outer diameter, 100 m) coated with Sigmacote (Sigma-Aldrich) to reduce surface tension as described elsewhere (19). […] The micropipette was lowered to a depth of 750 m measured from the dorsal surface of the cord, and 4-6 μL of the diluted amphiphile solution was injected at 1 L/min. […]
To assess in vitro tubulogenesis and in vivo angiogenesis, an ImageJ (Fiji) script was established to automatically calculate 1) area fraction of blood vessels, 2) blood vessels length, and 3) number of branches. Images were processed, binarized and analyzed. […]

## C16-A2G2E4GIKVAV [IKVAV PA2]
[1]
  average fiber width: 10.6±0.1 nm
[2]; 12 weeks after injury
  newly formed blood vessels (number of BrdU+/CD31+ cells): very modest but yet significantly increased
[2]; DiI-labelled vessels, transverse sections
  vascular area fraction, vascular length, and branching: did not differ significantly
